Values quoted from earlier work in patent publication US20040122104A1 (Collegium Pharmaceutical, Inc., priority 2002, published 2004).
Where two headings read alike, the source gives them in different places.

Key:
[1] = 75-100 mg/day twice daily for 8 weeks, 219 elderly patients
[2] = intravenous, of 10 patients
[3] = not given; remark: listed apart in the source
[4] = compared with SSRIs and tricyclic antidepressants
[5] = approximately 400,000 patients
[6] = in vivo

Structure (SMILES)	only adverse event reported more frequently than for imipramine recipients [1]	patients reporting transient nausea [2]	metabolites as share of the concentration of the parent drug (liver metabolism)	number of chemically identified metabolites (liver metabolism)	time in which oral doses are absorbed and extensively distributed in the body (oral) [h]	global pain score, mean value ([3]; 1-7 scale (1 very much improved, 4 unchanged, 7 very much worse), patients who reached endpoint)	participants who failed the dose escalation ([3]; BID-IR group (twice daily immediate release)) [%]	participants who failed the dose escalation ([3]; QD-IR group (once daily immediate release)) [%]	disturbances of REM sleep [4]	toxicity in humans [5]	top three adverse events associated with discontinuation of treatment [6]
CCN(CC)C(=O)C1(c2ccccc2)CC1CN (centres unmarked) [milnacipran, Milnacipran]	nausea	five	about 10%	ten	1 to 2	2.3	6	19	only minor disturbances	non-toxic	–
CN[C@H]1CC[C@@H](c2ccc(Cl)c(Cl)c2)c2ccccc21 [sertraline]	–	–	–	–	–	–	–	–	–	–	nausea, insomnia, and diarrhea
